Assays:
Assay in all cases: AUC of viability dose-response curve (% viability x log10 dose units); higher = less sensitive
Settings in all cases: 48 h
[1] = system: P12-Ichikawa
Summary of the method: (§1)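 Over 48 h at 37°C, leukemia cells in 1536-well plates (500 or 1000 cells/well), adapted to each medium, received library compounds in DMSO at 11 threefold doses from 47 μM to 0.79 nM. CellTiter-Glo One luminescence, normalised per plate to DMSO and cell-free wells, was fitted by a four-parameter log-logistic function of log10 dose. The area under the curve was then integrated by trapezoidal rule, after scaling curves above full viability and removing those that failed quality control.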

[2] = system: NOMO1
Summary of the method: as §1

[3] = system: SEM cells
Summary of the method: as §1

[4] = RPMI 5 mM glucose + 10% dialyzed FBS

SMILES	AUC of viability dose-response curve ([1]; HPLM + 10% dialyzed FBS)	AUC of viability dose-response curve ([1]; RPMI 5 mM glucose + 10% FBS)	AUC of viability dose-response curve [1, 4]	AUC of viability dose-response curve ([2]; HPLM + 10% dialyzed FBS)	AUC of viability dose-response curve ([2]; RPMI 5 mM glucose + 10% FBS)	AUC of viability dose-response curve [2, 4]	AUC of viability dose-response curve ([3]; HPLM + 10% dialyzed FBS)	AUC of viability dose-response curve ([3]; RPMI 5 mM glucose + 10% FBS)	AUC of viability dose-response curve [3, 4]
C=C[C@H]1CN2CC[C@H]1C[C@H]2[C@H](O)c1ccnc2ccc(OC)cc12	458	466	446	464	443	469	472	442	431
CCC(C)(C)c1ccc(CC(C)CN2C[C@@H](C)O[C@@H](C)C2)cc1 (stereo partly specified)	424	417	380	422	368	397	356	369	398
C[C@]12CC[C@@H]3c4ccc(O)cc4C[C@@H](CCCCCCCCC[S+]([O-])CCCC(F)(F)C(F)(F)F)[C@H]3[C@@H]1CC[C@@H]2O (stereo partly specified)	464	462	455	428	470	429	475	411	459
COc1ccc(-n2nc(C(N)=O)c3c2C(=O)N(c2ccc(N4CCCCC4=O)cc2)CC3)cc1	371	370	381	313	270	300	464	432	442
CN1\C(=C(\O)C2=CC=CC=C2[S+]1([O-])=O)C(=O)NC3=NC=C(C)S3	416	392	420	476	449	410	447	427	430
CC(C)NC[C@@H](C(=O)N1CCN(c2ncnc3c2[C@H](C)C[C@H]3O)CC1)c1ccc(Cl)cc1	367	350	362	411	444	419	257	251	249
COc1ccc(-c2nc(N3CCOCC3)c3sc(CN(C)c4ncc(C(=O)NO)cn4)cc3n2)cn1	163	162	172	156	169	166	136	113	144
Cc1cnc(NC(=O)Nc2cc(Br)c(C)cc2OC[C@@H]2CNCCO2)cn1	424	435	393	355	409	365	328	350	326
COc1cc2c(cc1OC)CC(=O)N(CCCN(C)C[C@H]1Cc3cc(OC)c(OC)cc31)CC2.Cl	475	477	459	466	463	440	464	465	469
COCCCN1CCC(NC(=O)c2cc(Cl)c(N)c3c2OCC3)CC1	465	467	473	460	456	468	453	451	454
CN(C)C1=CC=C(C=C1)C(C2=CC=C(C=C2)N(C)C)=C/3\C=C/C(/C=C3)=[N+](C)C	253	233	240	225	232	234	226	218	211
NC(=O)c1ccc(I)c([N+](=O)[O-])c1	461	457	468	468	475	464	473	470	467
COc1ccc(C(C)=O)c(O)c1	422	421	423	350	366	381	439	450	462
NC/1=N/C2=C([NH]C=N2)C(=S)N1	441	433	409	457	451	402	458	457	345
CNC1CCC(N(Cc2cccc(-c3ccncc3)c2)C(=O)c2sc3c(F)ccc(F)c3c2Cl)CC1 (stereo unspecified)	467	466	463	453	470	466	455	464	445
O=C(O)C1=NC(C(=O)O)CC(/C=C/N2c3cc(O)c(OC4OC(CO)C(O)C(O)C4O)cc3CC2C(=O)O)=C1 (stereo unspecified)	463	450	462	462	465	421	467	466	461
O=C(Nc1ccc(F)c(C(F)(F)F)c1)Nc1nnc(-c2ccncc2)s1	469	451	465	456	444	466	467	464	467
CNc1nccc(-c2cccnc2Oc2cc(C(=O)Nc3cccc(C(F)(F)F)c3)ccc2C)n1	467	462	468	458	458	461	466	460	461
COc1cc(OC)c(/C=C/[S+](=O)([O-])Cc2ccc(OC)c(NCC(=O)[O][Na])c2)c(OC)c1	271	269	257	315	309	278	287	269	249

Reference: the supplement of paper PMC11451515
